# Assays:
# K562 and K562/4 cells = assay: Intracellular drug accumulation; format: cell-based, human; conditions: 1 μM, 1 h to 24 h
# Top1 [1] = target: T1, Top1 (Homo sapiens, UniProt P11387); assay: Top1 mediated DNA cleavage; format: biochemical; conditions: 117 bp oligonucleotide with Top1 cleavage sites
# T1 sequence (P11387 1-765): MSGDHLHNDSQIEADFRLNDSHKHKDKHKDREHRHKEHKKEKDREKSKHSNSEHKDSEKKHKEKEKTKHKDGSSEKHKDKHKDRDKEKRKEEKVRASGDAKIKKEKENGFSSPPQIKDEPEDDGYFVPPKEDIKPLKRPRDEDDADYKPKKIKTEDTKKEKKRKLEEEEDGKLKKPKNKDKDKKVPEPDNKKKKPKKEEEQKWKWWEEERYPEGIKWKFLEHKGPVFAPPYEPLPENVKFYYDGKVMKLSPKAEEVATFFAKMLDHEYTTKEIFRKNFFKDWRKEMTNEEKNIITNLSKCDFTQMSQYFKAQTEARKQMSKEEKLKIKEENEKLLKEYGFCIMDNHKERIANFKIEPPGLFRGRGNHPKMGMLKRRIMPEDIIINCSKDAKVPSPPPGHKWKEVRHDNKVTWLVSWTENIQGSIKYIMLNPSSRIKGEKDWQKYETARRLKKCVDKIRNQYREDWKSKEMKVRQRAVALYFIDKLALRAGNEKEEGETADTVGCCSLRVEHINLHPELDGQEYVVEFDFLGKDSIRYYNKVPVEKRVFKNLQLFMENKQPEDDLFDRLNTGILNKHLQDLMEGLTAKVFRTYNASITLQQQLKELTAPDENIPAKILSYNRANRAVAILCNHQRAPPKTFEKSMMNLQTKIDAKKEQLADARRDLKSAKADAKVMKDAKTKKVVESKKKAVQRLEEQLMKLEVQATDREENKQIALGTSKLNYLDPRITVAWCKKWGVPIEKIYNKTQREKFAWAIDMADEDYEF
# [2] = tested on: donor peripheral blood lymphocytes; assay: Cytotoxicity for donor lymphocytes; format: cell-based; conditions: data not shown
# Top2 = Top2 (Homo sapiens, UniProt P11388); assay: Top2 DNA relaxation assay; format: biochemical
# Sequence of Top2 (P11388 whole entry, species assumed): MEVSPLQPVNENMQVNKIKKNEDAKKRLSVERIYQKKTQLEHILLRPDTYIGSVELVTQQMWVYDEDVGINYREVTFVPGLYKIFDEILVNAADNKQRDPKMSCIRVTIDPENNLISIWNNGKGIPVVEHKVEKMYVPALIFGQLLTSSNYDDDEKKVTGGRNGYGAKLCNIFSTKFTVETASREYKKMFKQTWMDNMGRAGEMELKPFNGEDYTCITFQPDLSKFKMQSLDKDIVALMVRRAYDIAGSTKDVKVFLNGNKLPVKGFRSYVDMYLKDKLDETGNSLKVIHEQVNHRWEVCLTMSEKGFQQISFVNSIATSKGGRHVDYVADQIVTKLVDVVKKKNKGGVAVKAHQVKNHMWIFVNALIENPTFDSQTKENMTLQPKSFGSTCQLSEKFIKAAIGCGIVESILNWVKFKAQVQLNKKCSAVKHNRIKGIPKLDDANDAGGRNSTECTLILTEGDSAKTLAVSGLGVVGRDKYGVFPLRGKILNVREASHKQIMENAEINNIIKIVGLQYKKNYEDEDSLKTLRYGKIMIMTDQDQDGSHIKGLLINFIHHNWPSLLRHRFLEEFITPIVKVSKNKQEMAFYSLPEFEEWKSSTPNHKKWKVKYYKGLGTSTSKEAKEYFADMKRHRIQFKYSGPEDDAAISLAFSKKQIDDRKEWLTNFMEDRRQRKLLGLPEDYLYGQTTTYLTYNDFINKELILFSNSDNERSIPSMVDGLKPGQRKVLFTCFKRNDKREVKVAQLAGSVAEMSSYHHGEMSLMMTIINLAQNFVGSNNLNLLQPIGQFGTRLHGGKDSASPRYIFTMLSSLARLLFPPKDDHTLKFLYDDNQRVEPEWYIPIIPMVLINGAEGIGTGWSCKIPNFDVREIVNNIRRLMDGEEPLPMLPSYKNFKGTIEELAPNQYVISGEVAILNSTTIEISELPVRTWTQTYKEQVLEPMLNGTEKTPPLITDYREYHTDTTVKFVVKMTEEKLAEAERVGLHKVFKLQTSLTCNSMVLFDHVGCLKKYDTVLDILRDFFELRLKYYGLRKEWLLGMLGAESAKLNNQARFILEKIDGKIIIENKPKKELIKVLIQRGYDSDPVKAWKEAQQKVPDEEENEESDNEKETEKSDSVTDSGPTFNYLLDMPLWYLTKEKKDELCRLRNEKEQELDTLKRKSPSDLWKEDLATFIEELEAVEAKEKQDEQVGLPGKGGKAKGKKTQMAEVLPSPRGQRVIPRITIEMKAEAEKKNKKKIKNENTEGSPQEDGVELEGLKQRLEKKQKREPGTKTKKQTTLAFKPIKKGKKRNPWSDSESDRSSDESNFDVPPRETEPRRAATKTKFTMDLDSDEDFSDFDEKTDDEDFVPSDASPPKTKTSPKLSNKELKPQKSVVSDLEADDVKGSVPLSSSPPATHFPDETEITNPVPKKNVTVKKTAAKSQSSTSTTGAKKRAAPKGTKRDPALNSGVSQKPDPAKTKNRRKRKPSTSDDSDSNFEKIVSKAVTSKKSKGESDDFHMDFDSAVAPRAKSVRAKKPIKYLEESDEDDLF
# Top1 [3] = assay: Top1 DNA relaxation assay; format: biochemical; conditions: no influence at ≤1 μM, effect at 5 μM and 10 μM
# [4] = tested on: 364 human protein kinases; assay: In vitro kinase panel; format: biochemical
# [5] = tested on: HCT116 and HCT116p53KO cells; assay: Annexin V-FITC / PI staining; format: cell-based, human; conditions: 1 μM, 24 h
# [6] = tested on: i.p. transplanted P388 leukemia; assay: Antitumor efficacy, i.p. transplanted P388 leukemia
# [7] = Water solubility of salts; format: physicochemical
# Aurora B = Aurora B (Homo sapiens, UniProt Q96GD4); assay: In vitro kinase assay, Aurora B; format: biochemical
# Sequence of Aurora B (Q96GD4 whole entry): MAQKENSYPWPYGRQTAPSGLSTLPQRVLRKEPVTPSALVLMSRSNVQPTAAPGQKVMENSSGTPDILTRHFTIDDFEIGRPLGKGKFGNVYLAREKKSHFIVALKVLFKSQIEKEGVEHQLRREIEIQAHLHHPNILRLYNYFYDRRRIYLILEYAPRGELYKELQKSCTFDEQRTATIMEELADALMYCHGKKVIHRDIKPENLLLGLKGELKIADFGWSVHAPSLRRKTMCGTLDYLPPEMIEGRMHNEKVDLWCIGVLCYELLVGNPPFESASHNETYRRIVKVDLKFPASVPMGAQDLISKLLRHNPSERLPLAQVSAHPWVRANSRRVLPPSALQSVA
# [8] = tested on: i.p. transplanted P388 leukemia; conditions: similar treatment schedule, total dose 150 mg/kg for five days; cited from earlier work
structure (smiles),measurement,setting,value
"COc1cccc2c1C(=O)c1c(O)c3c(c(O)c1C2=O)C[C@@](O)(C(=O)CO)C[C@@H]3O[C@H]1C[C@H](N)[C@H](O)[C@H](C)O1 [Compound 1, doxorubicin, reference compound]","cell associated fluorescence (intracellular accumulation), K562 vs K562/4",K562 and K562/4 cells,increased to a much lesser extent
"CS(=O)(=O)O.Cc1oc2c(O)c3c(c(O)c2c1C(=O)N1CC[C@@H](N)C1)C(=O)c1ccccc1C3=O [Compound 3c, (R)-3-(3-Aminopyrrolidine-1-carbonyl)-4,11-dihydroxy-2methylanthra [2,3-b]furan-5,10-dione methanesulfonate]",Top1 mediated specific DNA cleavage,Top1 [1],poorly generated the specific DNA cleavage
same,cytotoxicity against donor peripheral blood lymphocytes,[2],no detectable cytotoxicity
same,"cell associated fluorescence (intracellular accumulation), K562 vs K562/4",K562 and K562/4 cells,increased similarly over time
same,Top2 mediated plasmid DNA relaxation,Top2,even at 40 μM a certain amount of relaxed plasmid DNA was detectable
same,Top1 mediated relaxation of supercoiled plasmid DNA,Top1 [3],attenuated Top1 mediated relaxation of the supercoiled plasmid DNA in a dose dependent manner
"CS(=O)(=O)O.Cc1oc2c(O)c3c(c(O)c2c1C(=O)N1CC[C@H](N)C1)C(=O)c1ccccc1C3=O [Compound 3d, (S)-3-(3-Aminopyrrolidine-1-carbonyl)-4,11-dihydroxy-2methylanthra [2,3-b]furan-5,10-dione methanesulfonate]",Top1 mediated specific DNA cleavage,Top1 [1],poorly generated the specific DNA cleavage
same,human protein kinases attenuated (IC50 < 5 μM) out of 364,[4],2.5%
same,cytotoxicity against donor peripheral blood lymphocytes,[2],no detectable cytotoxicity
same,"cell associated fluorescence (intracellular accumulation), K562 vs K562/4",K562 and K562/4 cells,increased similarly over time
same,Top2 mediated plasmid DNA relaxation,Top2,even at 40 μM a certain amount of relaxed plasmid DNA was detectable
same,Top1 mediated relaxation of supercoiled plasmid DNA,Top1 [3],attenuated Top1 mediated relaxation of the supercoiled plasmid DNA in a dose dependent manner
same,apoptotic (Annexin V+/PI−) events,[5],increased percentage of apoptotic
same,"T/C, %","[6]; Table 3, n = 6, single 50 mg/kg i.p. daily days 1–5 (total 250 mg/kg)",death from drug toxicity
same,toxicity at single dose of 50 mg/kg,[6]; single dose 50 mg/kg i.p. daily for 5 days (total 250 mg/kg),lethally toxic
same,general drug toxicity,"[6]; single doses of 5–40 mg/kg i.p. daily for 5 days, during or after treatment",No signs of general drug toxicity
"COc1cc([C@@H]2c3cc4c(cc3[C@@H](O[C@@H]3O[C@@H]5CO[C@@H](C)O[C@H]5[C@H](O)[C@H]3O)[C@H]3COC(=O)[C@H]23)OCO4)cc(OC)c1O [VP16, etoposide, reference compound]",Top2 mediated plasmid DNA relaxation,Top2,even at 200 μM of VP16 the DNA remained largely unwound
COc1cc2c3c(n(CCCNCCO)c(=O)c2cc1OC)-c1cc2c(cc1C3=O)OCO2 [MJ–III–65],Top1 mediated specific DNA cleavage,Top1 [1],pattern of bands characteristic for specific Top1 poisons
"CC[C@@]1(O)C(=O)OCc2c1cc1n(c2=O)Cc2cc3ccccc3nc2-1 [CPT, camptothecin]",Top1 mediated specific DNA cleavage,Top1 [1],pattern of bands characteristic for specific Top1 poisons
"CS(=O)(=O)O.Cc1oc2c(O)c3c(c(O)c2c1C(=O)N1CCN(C)CC1)C(=O)c1ccccc1C3=O [Compound 3l, 4,11-Dihydroxy-2-methyl-3-(4-methylpiperazine-1carbonyl)anthra [2,3-b]furan-5,10-dione methanesulfonate]",water solubility of the salt,[7],water soluble mesylates
O=C1c2ccccc2C(=O)c2c1c(O)c1[nH]cc(CN[C@@H]3CCNC3)c1c2O [Compound 2],Top1 mediated specific DNA cleavage,Top1 [1],cleaved some but not all these sites
same,IC50,Aurora B,130 to 150 µM
same,T/Cmax,[8],155%
